Experiment [1] addresses T1, Human Factor XIIa (hFXIIa) (Homo sapiens, UniProt P00748).
T1 construct: purchased Enzyme Research Laboratories
T1 sequence (P00748 373-615 limits assumed): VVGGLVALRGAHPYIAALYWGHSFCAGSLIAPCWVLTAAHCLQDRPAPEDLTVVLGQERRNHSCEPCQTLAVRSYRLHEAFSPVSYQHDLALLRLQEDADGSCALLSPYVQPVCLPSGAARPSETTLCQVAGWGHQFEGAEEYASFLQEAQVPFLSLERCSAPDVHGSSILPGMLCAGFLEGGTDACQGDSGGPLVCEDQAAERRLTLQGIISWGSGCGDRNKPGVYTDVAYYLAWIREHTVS
T1 sequence (P00748 20-372 partner limits assumed): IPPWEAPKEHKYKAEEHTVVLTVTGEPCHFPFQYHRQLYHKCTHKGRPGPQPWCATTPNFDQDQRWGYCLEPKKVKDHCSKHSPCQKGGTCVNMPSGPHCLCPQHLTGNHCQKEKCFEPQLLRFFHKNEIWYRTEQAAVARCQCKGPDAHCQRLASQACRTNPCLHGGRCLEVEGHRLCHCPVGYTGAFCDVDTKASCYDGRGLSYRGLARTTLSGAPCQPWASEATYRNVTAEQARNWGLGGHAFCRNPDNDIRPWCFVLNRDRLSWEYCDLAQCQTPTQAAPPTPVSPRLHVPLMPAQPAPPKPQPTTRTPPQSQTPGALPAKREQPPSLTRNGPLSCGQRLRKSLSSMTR
Description: Determination of Human Factor XIIa (hFXIIa) inhibition, fluorogenic substrate IC50 assay. In kind it is biochemical. The settings on record: fluorogenic substrate H-DPro-Phe-Arg-AFC at Km, 25° C., read-out: Human FXIIa IC50. The protocol:
Determination of Human Factor XIIa (hFXIIa) inhibition
The Km for the cleavage of the substrate by hFXIIa was determined by standard transformation of the Michaelis-Menten equation, with subsequent inhibition assays performed at substrate Km concentration.

Another experiment deals with FXa (Homo sapiens, UniProt P00742). The experiment can be described thus: Related protease inhibition: FXa, fluorogenic substrate. The class given is biochemical. The settings on record: fluorogenic substrate at Km, 25° C.; H1-H3 = % activity at 40 μM. The protocol:
Human serine protease enzyme Plasma Kallikrein, KLK1, FXa, Plasmin, Thrombin and Trypsin were assayed for enzymatic activity using an appropriate fluorogenic substrate at Km concentration, FXIa at fixed substrate concentration of 100 μM and various concentrations of the test compound.

Chain of FXa (P00742 235-488 limits assumed): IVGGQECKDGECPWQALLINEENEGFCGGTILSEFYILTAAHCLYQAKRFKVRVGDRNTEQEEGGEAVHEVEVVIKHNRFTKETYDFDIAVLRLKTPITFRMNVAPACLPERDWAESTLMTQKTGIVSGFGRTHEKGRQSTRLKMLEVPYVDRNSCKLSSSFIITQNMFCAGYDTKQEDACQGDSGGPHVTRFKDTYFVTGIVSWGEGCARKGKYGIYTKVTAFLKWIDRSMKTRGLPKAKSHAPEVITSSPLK
Chain of FXa (P00742 41-179 partner limits assumed): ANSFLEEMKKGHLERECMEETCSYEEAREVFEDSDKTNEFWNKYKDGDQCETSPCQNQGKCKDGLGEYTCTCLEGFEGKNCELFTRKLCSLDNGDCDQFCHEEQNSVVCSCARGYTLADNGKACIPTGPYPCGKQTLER

Consider `CCNC(=O)c1nn(-c2cc(C)ccn2)c2c1CCN(c1ccc3c(c1)C(=O)N(C)CC3)C2=O` [Example 2035, N-ethyl-6-(2-methyl-1-oxo-1,2,3,4-tetrahydroisoquinolin-7-yl)-1-(4-methylpyridin-2-yl)-7-oxo-4,5,6,7-tetrahydro-1H-pyrazolo[3,4-c]pyridine-3-carboxamide], for which the results for the IC50 (in experiment [1]; on FXa) were 3000 to 10000 nM and 10000 to 40000 nM, respectively.

For `CCNC(=O)c1nn(-c2cccc(Cl)c2C)c2c1CCN(c1ccc3c(c1)C(=O)N(C)CC3)C2=O` [Example 2036, 1-(3-chloro-2-methylphenyl)-N-ethyl-6-(2-methyl-1-oxo-1,2,3,4-tetrahydroisoquinolin-7-yl)-7-oxo-4,5,6,7-tetrahydro-1H-pyrazolo[3,4-c]pyridine-3-carboxamide], the IC50 (in general, the concentration that gives 50% inhibition) in experiment [1] was 1000 to 3000 nM; against FXa, above 40000 nM.

`Cc1cc(CNC(=O)c2nn(-c3cccc(Cl)c3F)c3c2CCN(c2ccc4c(c2)C(=O)N(C)CC4)C3=O)n[nH]1` [Example 2040, 1-(3-chloro-2-fluorophenyl)-6-(2-methyl-1-oxo-1,2,3,4-tetrahydroisoquinolin-7-yl)-N-((5-methyl-1H-pyrazol-3-yl)methyl)-7-oxo-4,5,6,7-tetrahydro-1H-pyrazolo[3,4-c]pyridine-3-carboxamide]: the IC50 in experiment [1] fell in the range of 10 to 100 nM; against FXa, 10000 to 40000 nM.

As to `Cc1nc2c(C(=O)NCC3CC3)nn(-c3cccc(Cl)c3)c2c(=O)n1-c1ccc2c(c1)CN(CCO)CC2` [Example 3003, 1-(3-chlorophenyl)-N-(cyclopropylmethyl)-6-(2-(2-hydroxyethyl)-1,2,3,4-tetrahydroisoquinolin-7-yl)-5-methyl-7-oxo-6,7-dihydro-1H-pyrazolo[4,3-d]pyrimidine-3-carboxamide], the IC50 in experiment [1] is 100 to 300 nM; at FXa, above 40000 nM.

For the compound `Cc1nc2c(C(=O)NCC3CC3)nn(-c3cccc(Cl)c3)c2c(=O)n1-c1ccc2c(c1)CN(C)CC2` [Example 3004, 1-(3-chlorophenyl)-N-(cyclopropylmethyl)-5-methyl-6-(2-methyl-1,2,3,4-tetrahydroisoquinolin-7-yl)-7-oxo-6,7-dihydro-1H-pyrazolo[4,3-d]pyrimidine-3-carboxamide], the values for the IC50 (in experiment [1]; on FXa) were 100 to 300 nM and 3000 to 10000 nM, respectively.

With `Cc1cn(C)nc1CNC(=O)c1nn(-c2cccc(Cl)c2)c2c(=O)n(-c3ccc4c(c3)CN(CCO)CC4)c(C)nc12` [Example 3005, 1-(3-Chlorophenyl)-N-[(1,4-dimethylpyrazol-3-yl)methyl]-6-[2-(2-hydroxyethyl)-3,4-dihydro-1H-isoquinolin-7-yl]-5-methyl-7-oxo-pyrazolo[4,3-d]pyrimidine-3-carboxamide], the IC50 in experiment [1] lay within 10 to 100 nM; against FXa it was 10000 to 40000 nM.

`Cc1cn(C)nc1CNC(=O)c1nn(-c2cccc(Cl)c2)c2c(=O)n(-c3ccc4c(c3)CN(C)CC4)c(C)nc12` [Example 3006, 1-(3-chlorophenyl)-N-((1,4-dimethyl-1H-pyrazol-3-yl)methyl)-5-methyl-6-(2-methyl-1,2,3,4-tetrahydroisoquinolin-7-yl)-7-oxo-6,7-dihydro-1H-pyrazolo[4,3-d]pyrimidine-3-carboxamide]: the figures for the IC50 (in experiment [1]; at FXa) were 10 to 100 nM and 1000 to 3000 nM, respectively.

With `Cc1nc2c(CNS(=O)(=O)C3CC3)nn(-c3cccc(Cl)c3)c2c(=O)n1-c1ccc2c(c1)CN(CCO)CC2` [Example 3007, N-[[1-(3-Chlorophenyl)-6-[2-(2-hydroxyethyl)-3,4-dihydro-1H-isoquinolin-7-yl]-5-methyl-7-oxopyrazolo[4,3-d]pyrimidin-3-yl]methyl]cyclopropanesulfonamide], the values for the IC50 (in experiment [1]; against FXa) were 300 to 1000 nM and 3000 to 10000 nM, respectively.

Take `Cc1nc2c(CNC(=O)C3CC3)nn(-c3cccc(Cl)c3)c2c(=O)n1-c1ccc2c(c1)CN(CCO)CC2` [Example 3008, N-((1-(3-chlorophenyl)-6-(2-(2-hydroxyethyl)-1,2,3,4-tetrahydroisoquinolin-7-yl)-5-methyl-7-oxo-6,7-dihydro-1H-pyrazolo[4,3-d]pyrimidin-3-yl)methyl)cyclopropanecarboxamide]: the IC50 in experiment [1] fell in the range of 300 to 1000 nM; on FXa, 3000 to 10000 nM.

In the case of `Cc1cn(C)nc1C(=O)NCc1nn(-c2cccc(Cl)c2)c2c(=O)n(-c3ccc4c(c3)CN(CCO)CC4)c(C)nc12` [Example 3009, N-[[1-(3-Chlorophenyl)-6-[2-(2-hydroxyethyl)-3,4-dihydro-1H-isoquinolin-7-yl]-5-methyl-7-oxopyrazolo[4,3-d]pyrimidin-3-yl]methyl]-1,4-dimethylpyrazole-3-carboxamide], the IC50 in experiment [1] lay within 300 to 1000 nM; at FXa, 3000 to 10000 nM.

In the case of `Cc1ccncc1C(=O)NCc1nn(-c2cccc(Cl)c2)c2c(=O)n(-c3ccc4c(c3)CN(CCO)CC4)c(C)nc12` [Example 3010, N-((1-(3-chlorophenyl)-6-(2-(2-hydroxyethyl)-1,2,3,4-tetrahydroisoquinolin-7-yl)-5-methyl-7-oxo-6,7-dihydro-1H-pyrazolo[4,3-d]pyrimidin-3-yl)methyl)-4-methylnicotinamide], the IC50 in experiment [1] was 300 to 1000 nM; against FXa it was 3000 to 10000 nM.

Regarding `Cc1ccncc1CNC(=O)c1nn(-c2cccc(Cl)c2)c2c(=O)n(-c3ccc4c(c3)CN(CCO)CC4)c(C)nc12` [Example 3011, 1-(3-chlorophenyl)-6-(2-(2-hydroxyethyl)-1,2,3,4-tetrahydroisoquinolin-7-yl)-5-methyl-N-((4-methylpyridin-3-yl)methyl)-7-oxo-6,7-dihydro-1H-pyrazolo[4,3-d]pyrimidine-3-carboxamide], the concentration for half-maximal inhibition (IC50) in experiment [1] is 10 to 100 nM; against FXa, 10000 to 40000 nM.

With `Cc1nc2c(C#N)nn(-c3cccc(Cl)c3)c2c(=O)n1-c1ccc2c(c1)CN(CCO)CC2` [Example 3012, 1-(3-chlorophenyl)-6-(2-(2-hydroxyethyl)-1,2,3,4-tetrahydroisoquinolin-7-yl)-5-methyl-7-oxo-6,7-dihydro-1H-pyrazolo[4,3-d]pyrimidine-3-carbonitrile], the IC50 is 100 to 300 nM in experiment [1] and 1000 to 3000 nM against FXa.

Turning to `N#Cc1nn(-c2cccc(Cl)c2)c2c(=O)n(-c3ccc4c(c3)CN(CCO)CC4)cnc12` [Example 3013, 1-(3-chlorophenyl)-6-(2-(2-hydroxyethyl)-1,2,3,4-tetrahydroisoquinolin-7-yl)-7-oxo-6,7-dihydro-1H-pyrazolo[4,3-d]pyrimidine-3-carbonitrile], the IC50 in experiment [1] fell in the range of 100 to 300 nM; on FXa, 300 to 1000 nM.

Consider `Cc1nc2c(C(=O)NCC3CC3)nn(-c3cccc(Cl)c3)c2c(=O)n1-c1ccc2c(c1)C(=O)N(C)CC2` [Example 3014, 1-(3-chlorophenyl)-N-(cyclopropylmethyl)-5-methyl-6-(2-methyl-1-oxo-1,2,3,4-tetrahydroisoquinolin-7-yl)-7-oxo-6,7-dihydro-1H-pyrazolo[4,3-d]pyrimidine-3-carboxamide], for which the results for the IC50 (in experiment [1]; against FXa) were 100 to 300 nM and above 40000 nM, respectively.

`Cc1cc(CNC(=O)c2nn(-c3cccc(Cl)c3)c3c(=O)n(-c4ccc5c(c4)C(=O)N(CCO)CC5)c(C)nc23)nn1C` [Example 3015, 1-(3-chlorophenyl)-N-((1,5-dimethyl-1H-pyrazol-3-yl)methyl)-6-(2-(2-hydroxyethyl)-1-oxo-1,2,3,4-tetrahydroisoquinolin-7-yl)-5-methyl-7-oxo-6,7-dihydro-1H-pyrazolo[4,3-d]pyrimidine-3-carboxamide]: the IC50 in experiment [1] is 10 to 100 nM; against FXa, above 40000 nM.

Regarding `Cc1nc2c(C(=O)NCC3CC3)nn(-c3cccc(Cl)c3)c2c(=O)n1-c1ccc2c(c1)C(=O)N(CCO)CC2` [Example 3016, 1-(3-chlorophenyl)-N-(cyclopropylmethyl)-6-(2-(2-hydroxyethyl)-1-oxo-1,2,3,4-tetrahydroisoquinolin-7-yl)-5-methyl-7-oxo-6,7-dihydro-1H-pyrazolo[4,3-d]pyrimidine-3-carboxamide], the IC50 in experiment [1] was 100 to 300 nM; on FXa, above 40000 nM.

On to `Cc1ccncc1CNC(=O)c1nn(-c2cccc(Cl)c2)c2c(=O)n(-c3ccc4c(c3)C(=O)N(CCO)CC4)c(C)nc12` [Example 3017, 1-(3-chlorophenyl)-6-(2-(2-hydroxyethyl)-1-oxo-1,2,3,4-tetrahydroisoquinolin-7-yl)-5-methyl-N-((4-methylpyridin-3-yl)methyl)-7-oxo-6,7-dihydro-1H-pyrazolo[4,3-d]pyrimidine-3-carboxamide], for which the figures for the half-inhibitory concentration (IC50) (in experiment [1]; against FXa) were 10 to 100 nM and 10000 to 40000 nM, respectively.

Regarding `Cc1nc2c(C(=O)O)nn(-c3cccc(Cl)c3)c2c(=O)n1-c1ccc2c(c1)C(=O)N(CCO)CC2` [Example 3018, 1-(3-chlorophenyl)-6-(2-(2-hydroxyethyl)-1-oxo-1,2,3,4-tetrahydroisoquinolin-7-yl)-5-methyl-7-oxo-6,7-dihydro-1H-pyrazolo[4,3-d]pyrimidine-3-carboxylic acid], the IC50 lay within 1000 to 3000 nM in experiment [1] and 10000 to 40000 nM against FXa.

The record behind these values is US20260132132A1, “3A,4,5,6-TETRAHYDRO-1 H-PYRAZOLO[3,4-C]PYRIDIN-7(7AH)-ONE DERIVATIVES AS FACTOR XIIA INHIBITORS” (KALVISTA PHARMACEUTICALS LIMITED, priority 2022, published 2026).
